This is an account of results in patent publication EP4763228A1, “PENTACYCLIC ACTIVE COMPOUND AND CONJUGATE THEREOF AND USE THEREOF” (Keymed Biosciences (Chengdu) Co., Ltd., priority 2023, dated 2025).

One may read the IC50 as the concentration needed to halve the response being measured. Read a low IC50 as greater potency in that assay.

Test systems include SK-BR-3 tumor cells; A549 tumor cells; NCI-N87 tumor cells.
What all share (assay): In vitro proliferation inhibition of compounds of formula (GH), CCK8, 6 days
Common to all, as to format: cell-based, human

The mark [1] stands for this setting: conclusion in words, comparison with Reference 1 at the same dose.

Procedure for A549 tumor cells: (§1) The object of this experiment is to test the in vitro killing activity of the compounds of the formula (GH) of the present disclosure on A549 tumor cells (human lung cancer cells, Beijing Tongren Hospital), SK-BR-3 tumor cells (human breast cancer cells, Wuhan Punosai, Cat. No. CL-0211) and NCI-N87 tumor cells (human gastric cancer cells, Cell Resource Center, Institute of Basic Medical Sciences, Chinese Academy of Medical Sciences, Cat. No. 3111C0001CCC000481). The cells were treated with different concentrations of the compounds in vitro and cultured for 6 days, then the in vitro activity of the test compounds was evaluated based on IC50 values by measuring the number of viable cells using CCK8 (Cell Counting Kit-8, Cat. No. TS547) reagent.
(§2) Taking the test method of in vitro killing activity against A549 cells, SK-BR-3 cells and NCI-N87 cells as an example, the test was carried out as follows. […] After the cells were completely digested, 10 mL cell culture medium containing 10% FBS was added, the digested cells were eluted, centrifuged at 300 g for 5 min, and the supernatant was discarded. […]
Procedure for NCI-N87 tumor cells: as §1, §2
Procedure for SK-BR-3 tumor cells: as §1, §2

Regarding `O=C1OCc2c(cc3n(c2=O)Cc2c-3nc3cc4c(cc3c2CCCCO)OCO4)[C@@]1(O)CC1CC1` [Compound 3], the IC50 in the test on SK-BR-3 tumor cells (Homo sapiens, 144 h, SK-BR-3 cells, 6 days, CCK8, 2% FBS) is 0.24 nM; in the test with A549 tumor cells (Homo sapiens, 144 h, A549 cells, 6 days, CCK8, 2% FBS) it was 1.68 nM; in the test with NCI-N87 tumor cells (Homo sapiens, 144 h, NCI-N87 cells, 6 days, CCK8, 2% FBS), 0.44 nM. The “inhibitory effect on the proliferation of SK-BR-3 cells in vitro” value with SK-BR-3 tumor cells (setting [1]) was “significantly higher inhibitory effect”. Besides, the “inhibitory effect on the proliferation of A549 cells in vitro” value in the test on A549 tumor cells (setting [1]) is “significantly higher inhibitory effect”. Further, the “inhibitory effect on the proliferation of NCI-N87 cells in vitro” value in the test with NCI-N87 tumor cells (setting [1]) is recorded as “significantly higher inhibitory effect”.
